# Measured values published in patent publication US20120121723A1, “Antimicrobial Compositions” (priority 2005, published 2012).
# Like-named read-outs stand apart in the source and are kept apart here.
# How the values were obtained:
# E. coli = assay: microbe, parasite or virus in culture; type: cell-based, Escherichia coli; conditions: for MIC: Escherichia coli
# Text: (§1) MIC testing and synergistic effects studies. The microorganisms were clinically obtained isolates. Staphylococcus aureus is a clinically significant member of the gram-positive group of bacterial pathogens. It gives rise to serious infections, and can produce bacteremia, endocarditis, and meningitis. Methicillin-resistant strains of Staphylococcus aureus (MRSA) were chosen for evaluation because they are a significant medical problem, particularly in view of the fact that methicillin is a drug of choice for treatment of S. aureus infection in the common penicillin-resistant strains. Escherichia coli was also chosen for evaluation. E. coli is a gram-negative pathogenic enterobacteriaceae, and is commonly used as a model organism for bacteria in general. The E. coli strain O157:H7, one of hundreds of strains of the bacterium E. coli, causes illness in humans.
# (§2) All individual components are present in the combination at a starting point of 10,000 μg/mL, or 1% unless otherwise noted in the parenthesis in the attached tables. Combinations are serially diluted to obtain the MIC. […]
# (§3) Abbreviations in Tables 2 and 3 are as follows. MIC is the Minimum Inhibitory Concentration. MRSA is Methicillin-resistant Staphylococcus Aureus. E. coli is Escherichia coli. […] Pluronic® F127 is Pluronic® F127 microemulsion.
# (§4) The Minimum Inhibitory Concentrations (MIC) were determined using tube dilution sensitivities. […] The cultures were incubated overnight at 37° C. and MICs were recorded. The MIC was determined as the lowest concentration of a combination which prevented visible microorganism growth (e.g., turbidity). A culture growth control without compound and several culture sensitive reference agents were used as positive controls. The assays were performed in triplicate.
# (§5) Dilutions of the compositions were added to bacterial growth media (tryptic soy broth) to result in a set of tubes with a concentration range of 0.001 mg/L-1000 mg/L of the combination.
# (§6) QB is the ppm (MIC) of active substance B alone which produces an endpoint. QC is the ppm (MIC) of active substance C alone which produces an endpoint. Qa is the ppm (MIC) of active substance A, in the combination, which produces an endpoint. Qb is the ppm (MIC) of active substance B, in the combination, which produces an endpoint. Qc is the ppm (MIC) of active substance C, in the combination, which produces an endpoint. And so on for Qn components.
# (§7) If the SI of Qa/QA+Qb/QB+Qc/QC is less than one, synergy is indicated. A value greater than one indicates antagonism. A value equal to one indicates additivity.
# MRSA = assay: MIC by tube dilution and Kull synergy index against MRSA; type: cell-based, Staphylococcus aureus; conditions: for MIC: Staphylococcus aureus
# Text: as §1, §2, §3, §4, §5, §6, §7
# resistant E. coli = assay: Additional synergy testing: combination plus 0.5X MIC of an antibiotic; type: cell-based, Escherichia coli
# [1] = Table 3, MIC of Component 1 alone against E. coli, read-out: 1-MIC-
# [2] = Table 3, MIC of Component 2 alone against E. coli, read-out: 2-MIC-
# [3] = Table 2, MIC of Component 2 alone against MRSA, read-out: 2-MIC-
# [4] = Table 2, MIC of Component 1 alone against MRSA, read-out: 1-MIC-
# [5] = Table 2, MIC of Component 3 alone against MRSA
# [6] = Table 2, MIC of Component 2 alone against MRSA
compound,measurement,setting,value
"CN(C)c1ccc2nc3ccc(=[N+](C)C)cc-3sc2c1 [Methylene blue, methylene blue]",MIC,E. coli; [1],1000 µg/mL
same,MIC,E. coli; [2],1000 µg/mL
same,MIC,MRSA; [3],25 µg/mL
"OCC1CCCO1 (stereo not shown) [THFA, tetrahydrofurfuryl alcohol]",MIC,"MRSA; MRSA, read-out: Other-MIC-",500 µg/mL
Oc1cccc2cccnc12 [8-hydroxyquinoline],MIC,E. coli; read-out: 3-MIC-,50 µg/mL
same,MIC,"MRSA; MRSA, read-out: 3-MIC-",1.56 µg/mL
same,MIC,"MRSA; MRSA, read-out: 3-MIC-MRSA",1.56 µg/mL
"CC(=O)c1c(O)c(C)c(O)c2c1OC1=CC(=O)C(C(C)=O)C(=O)C12C (stereo not shown) [Usnic Acid, usnic acid]",MIC,E. coli; [1],1000 µg/mL
same,MIC,E. coli; [2],1000 µg/mL
same,MIC,"MRSA; MRSA, read-out: 1-MIC-",6.25 µg/mL
same,MIC,"MRSA; MRSA, read-out: 2-MIC-",6.25 µg/mL
same,MIC,"MRSA; MRSA, read-out: 2-MIC-MRSA",6.25 µg/mL
"CCCCCCCCCCCCN(CCCN)CCCN [N,N-bis(3-aminopropyl)-dodecylamine, N,N-bis-(3-aminopropyl)dodecylamine]",MIC,E. coli; [1],25 µg/mL
same,MIC,E. coli; [2],25 µg/mL
same,MIC,MRSA; [4],12.5 µg/mL
same,MIC,MRSA; [3],12.5 µg/mL
"O=C(O)c1ccccc1O [Salicylic acid, salicylic acid]",MIC,"E. coli; Table 3, MIC of Component 3 alone against E. coli, read-out: 3-MIC-",1000 µg/mL
same,MIC,"MRSA; MRSA, Table 5, Component 3 alone, read-out: 3-MIC-MRSA",1000 µg/mL
same,MIC,"MRSA; Table 2, MIC of Component 3 alone against MRSA, read-out: 3-MIC-",1000 µg/mL
"C[C@H]1c2cccc(O)c2C(O)=C2C(=O)[C@]3(O)C(O)=C(C(N)=O)C(=O)[C@@H](N(C)C)[C@@H]3[C@@H](O)[C@@H]21 [doxy, doxycycline]",MIC Ab alone (B) QB,resistant E. coli,50 µg/mL
"O=C(O)CN(CCN(CC(=O)O)CC(=O)O)CC(=O)O.[K] [Sample K2EDTA, potassium ethylenediaminetetraacetic acid]",MIC,E. coli; read-out: 3-MIC-,1000 µg/mL
same,MIC,"MRSA; MRSA, read-out: 3-MIC-",500 µg/mL
same,MIC,"MRSA; MRSA, read-out: 3-MIC-MRSA",500 µg/mL
gentamicin,MIC Ab alone (B) QB,resistant E. coli,100 µg/mL
"CC(O)(P(=O)(O)O)P(=O)(O)O [HEDP, 1-hydroxyethylidene-1,1-diphosphonic acid]",3-MIC-,"E. coli; Table 3, MIC of Component 3 alone against E. coli",1001 ppm
same,3-MIC-,MRSA; [5],1001 ppm
same,3-MIC-MRSA,"MRSA; Table 5, Component 3 alone",1001 ppm
"CN(C)[C@@H]1C(=O)C(C(N)=O)=C(O)[C@@]2(O)C(=O)C3=C(O)c4c(O)cccc4[C@@](C)(O)[C@H]3C[C@@H]12 [tetra, tetracycline]",MIC Ab alone (B) QB,resistant E. coli,400 µg/mL
"C=CC(C)(O)CCC=C(C)CCC=C(C)C (stereo not shown) [Nerolidol, nerolidol]",MIC,E. coli; [1],1000 µg/mL
same,MIC,"MRSA; MRSA, Table 5, Comp. 1 alone, read-out: 1-MIC-MRSA",500 µg/mL
same,MIC,MRSA; [4],500 µg/mL
"[O-][n+]1ccccc1S [Pyrithione, pyrithione]",MIC,E. coli; read-out: 2-MIC-,6.25 µg/mL
same,MIC,"MRSA; MRSA, read-out: 2-MIC-",0.79 µg/mL
same,MIC,"MRSA; MRSA, read-out: 2-MIC-MRSA",0.79 µg/mL
"C=CCN=C=S [Allyl isothiocyanate, allyl isothiocyanate]",MIC,E. coli; [1],1000 µg/mL
same,MIC,E. coli; [2],1000 µg/mL
same,MIC,"MRSA; MRSA, read-out: 1-MIC-",1000 µg/mL
same,MIC,"MRSA; MRSA, read-out: 2-MIC-",1000 µg/mL
same,MIC,"MRSA; MRSA, read-out: 2-MIC-MRSA",1000 µg/mL
"CCCCCCCCO[C@@H]1O[C@H](CO)[C@@H](O)[C@H](O)[C@H]1O [Octyl glucoside, octyl glucoside]",2-MIC-,MRSA; [6],1001 ppm
"C=C(C)[C@H]1CC=C(C)CC1 [Limonene, limonene]",1-MIC-,"E. coli; Table 3, MIC of Component 1 alone against E. coli",1000 ppm
same,2-MIC-,"E. coli; Table 3, MIC of Component 2 alone against E. coli",1001 ppm
same,1-MIC-,"MRSA; Table 2, MIC of Component 1 alone against MRSA",1001 ppm
same,2-MIC-,MRSA; [6],1001 ppm
same,1-MIC-MRSA,"MRSA; Table 5, Comp. 1 alone",1001 ppm
2-hydroxypropyl-α-cyclodextrin,3-MIC-,MRSA; [5],1001 ppm
same,3-MIC-MRSA,"MRSA; Table 5, Component 3 alone",1001 ppm
"O=C(/C=C/C=C/c1ccc2c(c1)OCO2)N1CCCCC1 [Piperine, piperine]",MIC,E. coli; [1],1000 µg/mL
same,MIC,E. coli; [2],1000 µg/mL
same,MIC,"MRSA; MRSA, read-out: 1-MIC-",1000 µg/mL
same,MIC,"MRSA; MRSA, read-out: 2-MIC-",1000 µg/mL
same,MIC,"MRSA; MRSA, read-out: 2-MIC-MRSA",1000 µg/mL
